Where “and” joins values, the source holds several entries; their conditions need not be identical. Equal entries are not always repeated. Where two headings read alike, the source gives them in different places.
Experiments:
[1] = tested on: QS-controlled luxCDABE operon; format: cell-based; conditions: for Light production: LuxS-CqsA- +CAI-1 5 μM; for RLU: Strain AH371
[2] = tested on: CqsS; format: cell-based; conditions: for CqsS Dimers: LuxS-CqsA-, AI-2 1 μM, CAI-1 5 μM, single replicates
[3] = tested on: CqsS C170Y; assay: CqsS-dependent repression of qrr4-gfp, CqsS C170Y (Fig 7C); format: cell-based, Vibrio cholerae; conditions: Treatment 1uM; CqsS mutant C170Y
[4] = tested on: hapA; format: cell-based; conditions: ΔcqsA ΔluxS strain, HCD
[5] = tested on: CqsS F166L; assay: CqsS-dependent repression of qrr4-gfp, CqsS F166L (Fig 7C); format: cell-based, Vibrio cholerae
[6] = tested on: QS-controlled luxCDABE operon; format: cell-based; conditions: for RLU: PluxPQ-CqsS::3XFLAG LuxS-CqsA-
[7] = tested on: qrr4; format: cell-based
[8] = tested on: T1, WT CqsS; format: biochemical; conditions: for % Total Phosphorylation: CqsS WT
T1 construct: made in house; host or cells: E. coli C43 (DE3), pET21b; used as inverted membrane vesicles

[9] = tested on: CqsS F162A; conditions: cited from earlier work
[10] = tested on: CqsS C170Y; conditions: cited from earlier work
[11] = tested on: CqsS F166L; conditions: cited from earlier work
[12] = tested on: T1, WT CqsS; format: cell-based; conditions: Treatment 1uM
[13] = tested on: CqsS F162A; assay: CqsS-dependent repression of qrr4-gfp, CqsS F162A (Fig 7C); format: cell-based, Vibrio cholerae; conditions: Treatment 1uM; CqsS mutant F162A

In the case of CCCCCCCCCC(=O)[C@@H](O)CC [CAI-1, (S)-3-hydroxytridecan-4-one], the Light production ([1]; OD600 0.0198) was 6464646 RLU, the Light production ([1]; OD600 0.0375) was 5626666 RLU and the Light production ([1]; OD600 0.256) was 957031 RLU. The Light production ([1]; OD600 0.663) was 472096 RLU, the Light production ([1]; OD600 0.982) was 378819 RLU and the Light production ([1]; OD600 1.101) was 133515000 RLU. For the same compound, the RLU ([1]; agonist 0.0476837 nM) was 5.19E+03 RLU and 2.61E+03 RLU, the RLU ([1]; agonist 0.762939 nM) was 2.58E+03 RLU and 5.16E+03 RLU and 2.67E+03 RLU and the RLU ([1]; agonist 3.05176 nM) was 5.00E+03 RLU and 2.56E+03 RLU and 2.61E+03 RLU. For the same compound, the RLU ([1]; agonist 48.8281 nM) was 1.58E+04 RLU and 1.61E+04 RLU and 1.60E+04 RLU, the RLU ([1]; agonist 195.312 nM) was 2.98E+05 RLU and 2.86E+05 RLU and 2.15E+05 RLU and the RLU ([1]; agonist 781.25 nM) was 3.60E+06 RLU and 4.20E+06 RLU and 3.87E+06 RLU. The RLU ([1]; agonist 3125 nM) was 1.30E+07 RLU and 1.41E+07 RLU and 1.40E+07 RLU, the RLU ([1]; agonist 12500 nM) was 1.88E+07 RLU and 2.11E+07 RLU and 2.10E+07 RLU and the RLU ([1]; agonist 50000 nM) was 1.88E+07 RLU and 1.96E+07 RLU and 1.89E+07 RLU. For the same compound, the “increase in light production” value ([1]; saturating autoinducer, HCD, vs untreated ΔcqsA ΔluxS) was 100,000 fold, the “CqsS Dimers” value ([2]; HCD (OD600 = 2.0)) was 114.596 and 64.6161 and 71.1979 and 202.196 and 256.645 and 84.2562 and 79.0603 and 97.3422 and the “CqsS Dimers” value ([2]; LCD (OD600 = 0.2)) was 74.4347 and 10.9291 and 11.9686 and 59.9755 and 52.7962 and 18.8946 and 26.4401 and 52.893. The CqsS protein levels ([2]; ΔcqsA ΔluxS mutant, LCD and HCD) was “increased CqsS protein levels to nearly that present in the WT”, the Qrr4-GFP/OD600 [3] was 23520280 and 22034610 and 28130220 and the “increase in hapA expression” value [4] was “over 50 fold”. The Qrr4-GFP/OD600 ([5]; Treatment 1uM, CqsS mutant F166L) was 7778886 and 7289924 and 6896372, the “response (Qrr4-GFP production)” value ([5]; compounds at 1 μM) was “nearly impervious” and the RLU ([6]; OD600 0.0561) was 7.33E+06 RLU. It also gave an RLU ([6]; OD600 0.3257) of 8.15E+05 RLU, an RLU ([6]; OD600 1.037) of 1.96E+05 RLU and an RLU ([6]; OD600 1.243) of 3.52E+06 RLU. The RLU ([6]; OD600 1.958) was 2.58E+09 RLU, the RLU ([6]; OD600 2.673) was 3.36E+09 RLU and the “QS response when cqsS is under the luxPQ promoter” value ([6]; S9B Fig) was “incapable of inducing the premature response”. The “RLU, average per biological replicate (Totals)” value ([7]; LuxS-CqsA- strain + autoinducer, Rep 1-3) was 2.55E+08 RLU and 2.82E+08 RLU and 3.63E+08 RLU, the “reduction of qrr4-luxCDABE expression” value ([7]; saturating autoinducer, ΔcqsA ΔluxS mutant) was 20 fold and the “% Total Phosphorylation” value ([8]; Agonist 0.01 uM) was 102.493% and 101.697% and 101.306%. For the same compound, the “% Total Phosphorylation” value ([8]; Agonist 0.1 uM) was 89.3767% and 102.409% and 93.98%, the “% Total Phosphorylation” value ([8]; Agonist 0.5 uM) was 97.7615% and 100.304% and 88.309% and 81.2302% and 104.248% and 84.8997% and 78.17% and 83.6501% and the “% Total Phosphorylation” value ([8]; Agonist 1 uM) was 89.5575% and 94.3418% and 94.4031% and 65.5157% and 64.6244%. For the same compound, the “% Total Phosphorylation” value ([8]; Agonist 2.5 uM) was 63.4493% and 51.2966% and 78.14% and 56.8331% and 55.38%, the “% Total Phosphorylation” value ([8]; Agonist 5 uM) was 72.2411% and 75.0851% and 56.1286% and 43.0708% and 37.87% and 49.5683% and the “% Total Phosphorylation” value ([8]; Agonist 75 uM) was 26.5628% and 23.1908% and 29.77% and 22.6184%. For the same compound, the “% Total Phosphorylation” value ([8]; Agonist 500 uM) was 13.8148% and 19.6183% and 26.8103% and 17.4064%, the “% Total Phosphorylation” value ([8]; Agonist 1000 uM) was 22.144% and 17.5686% and the “inhibition of WT CqsS autophosphorylation” value ([8]; saturating concentration (Fig 7B)) was 80%. The “response of CqsS variant to CAI-1” value [9] was “do not respond”, the “response of CqsS variant to CAI-1” value [10] was “do not respond” and the “response of CqsS variant to CAI-1” value [11] was “do not respond”. The Qrr4-GFP/OD600 [12] was 1736969 and 1605333 and 1622571 and the Qrr4-GFP/OD600 [13] was 18299880 and 17516110 and 17110990.
